# Laboratory results as given in patent US9044389B2, “Isoxazoline derivatives as pesticides” (Novartis AG, priority 2008, dated 2015).
# Test system: Rhipicephalus sanguineus nymphs
# Assay: Activity in vivo against Rhipicephalus sanguineus nymphs on Mongolian gerbils (spray application)
# Conditions: tick number reduction vs placebo, Abbot's formula
# Protocol: On day 0, gerbils are treated with the test compound at a given dose by spray application. On day +1 (+2), the animals are infested with nymphs of R. sanguineus. Ticks are left on the animals until full repletion. Seven days after infestation nymphs dropped off fully engorged are collected and counted. Efficacy in killing is expressed as a tick number reduction in comparison with a placebo treated group, using the Abbot's formula.
compound,measurement,setting,value
"Cc1cc(C2=NOC(c3cc(Cl)cc(Cl)c3)(C(F)(F)F)C2)sc1C(=O)NCC(F)(F)F (centres unmarked) [Compound 1.8, 5-[5-(3,5-dichloro-phenyl)-5-trifluoromethyl-4,5-dihydro-isoxazol-3-yl]-3-methyl-thiophene-2-carboxylic acid (2,2,2-trifluoro-ethyl)-amide]",Efficacy in killing %,Dose 32 mg/kg,80%
O=C(NCC(F)(F)F)c1sc(C2=NOC(c3cc(Cl)cc(Cl)c3)(C(F)(F)F)C2)cc1-c1ccccc1 (centres unmarked) [Compound 1.21],Efficacy in killing %,Dose 32 mg/kg,98%
"Cc1cc(C2=NOC(c3cc(Cl)cc(Cl)c3)(C(F)(F)F)C2)sc1C(=O)NCC(=O)NCC(F)(F)F (centres unmarked) [Compound 1.28, 5-[5-(3,5-dichloro-phenyl)-5-trifluoromethyl-4,5-dihydro-isoxazol-3-yl]-3-methyl-thiophene-2-carboxylic acid [(2,2,2-trifluoro-ethylcarbamoyl)-methyl]-amide]",Efficacy in killing %,Dose 10 mg/kg,96%
Cc1cc(C2=NOC(c3cc(Cl)cc(Cl)c3)(C(F)(F)F)C2)sc1C(=O)NCC1CCCO1 (centres unmarked) [Compound 1.29],Efficacy in killing %,Dose 100 mg/kg,92%
Cc1cc(C2=NOC(c3cc(Cl)cc(Cl)c3)(C(F)(F)F)C2)sc1C(=O)Nc1nc(C(F)(F)F)cs1 (centres unmarked) [Compound 1.31],Efficacy in killing %,Dose 32 mg/kg,100%
Cc1cc(C2=NOC(c3cc(Cl)cc(Cl)c3)(C(F)(F)F)C2)sc1C(=O)NCc1ccncc1 (centres unmarked) [Compound 1.32],Efficacy in killing %,Dose 100 mg/kg,84%
Cc1cc(C2=NOC(c3cc(Cl)cc(Cl)c3)(C(F)(F)F)C2)sc1C(=O)Nc1cccnc1 (centres unmarked) [Compound 1.35],Efficacy in killing %,Dose 10 mg/kg,82%
C#CCNC(=O)CNC(=O)c1sc(C2=NOC(c3cc(Cl)cc(Cl)c3)(C(F)(F)F)C2)cc1C (centres unmarked) [Compound 1.48],Efficacy in killing %,Dose 10 mg/kg,95%
Cc1cc(C2=NOC(c3cc(Cl)cc(Cl)c3)(C(F)(F)F)C2)sc1C(=O)NCC(=O)NCC#N (centres unmarked) [Compound 1.49],Efficacy in killing %,Dose 3.2 mg/kg,85%
Cc1cc(C2=NOC(c3cc(Cl)c(Cl)c(Cl)c3)(C(F)(F)F)C2)sc1C(=O)NCC(=O)NCC(F)(F)F (centres unmarked) [Compound 2.4],Efficacy in killing %,Dose 10 mg/kg,90%
Cc1cc(C2=NOC(c3cc(Cl)c(F)c(Cl)c3)(C(F)(F)F)C2)sc1C(=O)NCC(=O)NCC(F)(F)F (centres unmarked) [Compound 2.5],Efficacy in killing %,Dose 10 mg/kg,90%
